Data published in paper PMC12566046, “Arylpiperazinyl-Benzocycloheptapyrrole-Carboxamides Endowed with Dual Anticancer and Antiviral Activities” (Molecules, 2025).
Where two headings read alike, the source gives them in different places.

Assays:
[1] = test system: CCRF-CEM (leukemia cell line); assay: NCI-60 five-dose assay; format: cell-based, human; details: five doses (10^−4–10^−8 M), read-out: Growth inhibition 50 (GI50)
[2] = test system: HL-60(TB) (leukemia cell line); assay: NCI-60 five-dose assay; format: cell-based, human; details: five doses (10^−4–10^−8 M), read-out: Growth inhibition 50 (GI50)
[3] = test system: K-562 (leukemia cell line); assay: NCI-60 five-dose assay; format: cell-based, human; details: read-out: Growth inhibition 50 (GI50)
[4] = test system: MOLT-4 (leukemia cell line); assay: NCI-60 five-dose assay; format: cell-based, human; details: five doses (10^−4–10^−8 M), read-out: Growth inhibition 50 (GI50)
[5] = test system: RPMI-8226 (leukemia cell line); assay: NCI-60 five-dose assay; format: cell-based, human; details: five doses (10^−4–10^−8 M), read-out: Growth inhibition 50 (GI50)
SR (leukemia cell line) = assay: NCI-60 five-dose assay; format: cell-based, human; details: five doses (10^−4–10^−8 M), read-out: Growth inhibition 50 (GI50)
[6] = test system: COLO 205 (colon cancer cell line); assay: NCI-60 five-dose assay; format: cell-based, human; details: five doses (10^−4–10^−8 M), read-out: Growth inhibition 50 (GI50)
[7] = test system: HCC-2998 (colon cancer cell line); assay: NCI-60 five-dose assay; format: cell-based, human; details: five doses (10^−4–10^−8 M), read-out: Growth inhibition 50 (GI50)
[8] = test system: HCT-116 (colon cancer cell line); assay: NCI-60 five-dose assay; format: cell-based, human; details: five doses (10^−4–10^−8 M), read-out: Growth inhibition 50 (GI50)
[9] = test system: HCT-15 (colon cancer cell line); assay: NCI-60 five-dose assay; format: cell-based, human; details: five doses (10^−4–10^−8 M), read-out: Growth inhibition 50 (GI50)
[10] = test system: HT29 (colon cancer cell line); assay: NCI-60 five-dose assay; format: cell-based, human; details: read-out: Growth inhibition 50 (GI50)
[11] = test system: KM12 (colon cancer cell line); assay: NCI-60 five-dose assay; format: cell-based, human; details: five doses (10^−4–10^−8 M), read-out: Growth inhibition 50 (GI50)
Leukemia panel = assay: NCI-60 five-dose assay, panel-level GI50 (mean graph midpoint, range); format: cell-based, human; details: Leukemia panel average, read-out: GI50 mean graph midpoint (MG_MID)
Protocol: (§1) Due to these preliminary results, six compounds, 1, 5, 10, 11, 17, and 20, were selected for the five-dose screen NCI-programme against the same panel of tumour cell lines.
(§2) Next, a mean graph midpoint (MG_MD) was calculated for compounds 1, 5, 10, 11, 17, and 20 and reported as waterfall graphs GI50, TGI, and LC50 in the Supplementary Materials (Figures S69–S86). In Table 9, we reported the average GI50 for the nine-cancer panels, underlining both the activity and selectivity for compounds 1, 10, 11, and 20.

Melanoma panel = assay: as above; format: cell-based, human; details: Melanoma panel average, read-out: GI50 mean graph midpoint (MG_MID)
Protocol: as §1, §2

Breast Cancer panel = assay: NCI-60 five-dose assay, panel-level GI50 (mean graph midpoint); format: cell-based, human; details: Breast Cancer panel average, read-out: GI50 mean graph midpoint (MG_MID)
Protocol: as §1, §2

CNS Cancer panel = assay: as above; format: cell-based, human; details: CNS Cancer panel average, read-out: GI50 mean graph midpoint (MG_MID)
Protocol: as §1, §2

[12] = test system: Non-Small Cell Lung Cancer panel; assay: as above; format: cell-based, human; details: Non-Small Cell Lung Cancer panel average, read-out: GI50 mean graph midpoint (MG_MID)
Protocol: as §1, §2

Ovarian Cancer panel = assay: as above; format: cell-based, human; details: Ovarian Cancer panel average, read-out: GI50 mean graph midpoint (MG_MID)
Protocol: as §1, §2

Prostate Cancer panel = assay: as above; format: cell-based, human; details: Prostate Cancer panel average, read-out: GI50 mean graph midpoint (MG_MID)
Protocol: as §1, §2

Renal Cancer panel = assay: as above; format: cell-based, human; details: Renal Cancer panel average, read-out: GI50 mean graph midpoint (MG_MID)
Protocol: as §1, §2

[13] = test system: NCI cancer panel (all cell lines); assay: NCI-60 five-dose assay, overall mean graph midpoint (MG_MID); format: cell-based, human; details: MG_MID over all panels, read-out: GI50 mean graph midpoint (MG_MID)
Protocol: as §1, §2

[14] = test system: LOX IMVI (melanoma cell line); assay: NCI-60 five-dose assay; details: for CC50: read-out: LC50 (molar concentration leading to 50% net cell death)
[15] = test system: MALME-3M (melanoma cell line); assay: NCI-60 five-dose assay; details: for GI50: read-out: Growth inhibition 50 (GI50); for CC50: read-out: LC50 (molar concentration leading to 50% net cell death)
[16] = test system: MDA-MB-435 (melanoma cell line); assay: NCI-60 five-dose assay
[17] = test system: MDA-MB-468 (breast cancer); assay: NCI-60 five-dose assay; format: cell-based, human; details: five-dose screen
[18] = test system: RXF 393 (renal cancer cells); assay: NCI-60 five-dose assay; format: cell-based, human; details: five-dose screen
Vero TMPRSS cells = details: read-out: SARS‐CoV‐2/Vero TMPRSS CC50; preliminary screening (50, 5, 0.5 μM), Vero TMPRSS
Huh-7 cells = assay: Cytotoxicity on uninfected Huh-7 cells (WST-8, crystal violet); details: read-out: ZIKV/Huh‐7 CC50; preliminary screening (50, 5, 0.5 μM), Huh-7
Protocol: The toxicity of the compounds at the same concentration was tested on the same cells in parallel.
Cytotoxic effects were evaluated on uninfected cells using the WST-8 assay (Orangu, Cell Guidance Systems, Cambridge, UK) and the crystal violet assay [23]. […] Huh-7, MDCK, and Vero TMPRSS cells were seeded at 1 × 10^4, 1.5 × 10^4, and 1.2 × 10^4 cells/well, respectively, and incubated for 48 h (Huh-7 and MDCK) or 24 h (VERO TMPRSS), following conditions matching those of the corresponding antiviral assays in terms of timing and culture medium. At the end of incubation, the medium was replaced with a 10% WST-8 solution in DMEM and incubated for 1 h at 37 °C. Optical density (OD) was then measured at 450 nm using a Varioskan LUX plate reader (ThermoFisher Scientific, Milano, Italy). Subsequently, cells were fixed with 4% buffered formalin solution (Merck®, Darmstadt, Germany), stained with 1% crystal violet (Merck®, Darmstadt, Germany), and the dye was solubilized in 30% acetic acid for 30 min under shaking. OD was then measured at 595 nm as an additional readout of cell viability. The percentage of viability at each concentration was calculated using the formula:% viability = 100 × (ODcompound/ODuntreated control) where ODcompound and ODuntreated are the OD of the cells treated with compound or DMSO, respectively.
The CC50 value was determined by nonlinear regression analysis on GraphPad Prism 7 (San Diego, CA, USA).

For O=C(NCCCN1CCN(Cc2ccccc2)CC1)c1c(Cl)[nH]c2c1CCCc1ccccc1-2 [Compound 20, N-(3-(4-Benzylpiperazin-1-yl)propyl)-2-chloro-1,4,5,6-tetrahydrobenzo[6,7]cyclohepta[1,2-b]pyrrole-3-carboxamide], the GI50 ([1]; Homo sapiens) was 10.7 µM, the GI50 ([2]; Homo sapiens) was 5.06 µM and the GI50 ([3]; Homo sapiens, K562, five doses (10^−4–10^−8 M)) was 2.97 µM. The GI50 ([4]; Homo sapiens) was 4.78 µM, the GI50 ([5]; Homo sapiens) was 3.69 µM and the GI50 (SR (leukemia cell line); Homo sapiens) was 0.53 µM. It also gave a GI50 ([6]; Homo sapiens) of 1.96 µM, a GI50 ([7]; Homo sapiens) of 1.77 µM and a GI50 ([8]; Homo sapiens) of 5.5 µM. It also gave a GI50 ([9]; Homo sapiens) of 7.78 µM, a GI50 ([10]; Homo sapiens, HT-29, five doses (10^−4–10^−8 M)) of 4.03 µM and a GI50 ([11]; Homo sapiens) of 9.38 µM. It also gave a GI50 (Leukemia panel; Homo sapiens) of 3.39 µM, a GI50 (Melanoma panel; Homo sapiens) of 3.39 µM and a GI50 (Breast Cancer panel; Homo sapiens) of 6.92 µM. For the same compound, the GI50 (CNS Cancer panel; Homo sapiens) was 12 µM, the GI50 ([12]; Homo sapiens) was 10.5 µM and the GI50 (Ovarian Cancer panel; Homo sapiens) was 12 µM. For the same compound, the GI50 (Prostate Cancer panel; Homo sapiens) was 9.55 µM, the GI50 (Renal Cancer panel; Homo sapiens) was 9.12 µM and the GI50 ([13]; Homo sapiens) was 6.76 µM. For the same compound, the “TGI (molar concentration giving total growth inhibition)” value [14] was 15.85 µM, the GI50 ([14]; Homo sapiens, read-out: Growth inhibition 50 (GI50)) was 4.33 µM and the CC50 ([14]; Homo sapiens) was 40.7 µM. The GI50 ([15]; Homo sapiens, Malme-3M) was 2.02 µM, the CC50 ([15]; Homo sapiens, Malme-3M) was 7.76 µM and the “TGI (molar concentration giving total growth inhibition)” value ([15]; MALME-3M) was 3.98 µM. The GI50 ([16]; Homo sapiens, MDA-MB-435, read-out: Growth inhibition 50 (GI50)) was 4.9 µM, the CC50 ([16]; Homo sapiens, MDA-MB-435, read-out: LC50 (molar concentration leading to 50% net cell death)) was 49 µM and the “TGI (molar concentration giving total growth inhibition)” value ([16]; MDA-MB-435) was 17.78 µM.

“N-(3-(4-Benzylpiperazin-1-yl)propyl)-2-chloro-1,4,5,6-tetrahydrobenzo[6,7]cyclohepta[1,2-b]pyrrole-2-carboxamide [Compound 11]” showed a GI50 [1] of 3.89 µM, a GI50 [2] of 2.92 µM and a GI50 ([3]; five doses (10^−4–10^−8 M)) of 2.57 µM. The GI50 [4] was 2.69 µM, the GI50 [5] was 2.2 µM and the GI50 (SR (leukemia cell line)) was 2.49 µM. It also gave a GI50 [6] of 1.65 µM, a GI50 [7] of 1.73 µM and a GI50 [8] of 3.37 µM. It also gave a GI50 [9] of 3.65 µM, a GI50 ([10]; five doses (10^−4–10^−8 M)) of 2.6 µM and a GI50 [11] of 4.11 µM. The GI50 [17] was 2.69 µM, the GI50 [18] was 1.96 µM and the GI50 (Leukemia panel) was 2.88 µM. The GI50 (Melanoma panel) was 2.34 µM, the GI50 (Breast Cancer panel) was 3.47 µM and the GI50 (CNS Cancer panel) was 5.25 µM. The GI50 [12] was 7.08 µM, the GI50 (Ovarian Cancer panel) was 7.94 µM and the GI50 (Prostate Cancer panel) was 5.13 µM. It also gave a GI50 (Renal Cancer panel) of 5.89 µM, a GI50 [13] of 4.47 µM and a CC50 (Vero TMPRSS cells) of 15.4 µM. The “TGI (molar concentration giving total growth inhibition)” value [14] was 5.13 µM, the GI50 ([14]; read-out: Growth inhibition 50 (GI50), five doses (10^−4–10^−8 M)) was 2.16 µM and the CC50 [14] was 15.8 µM. For the same compound, the “TGI (molar concentration giving total growth inhibition)” value ([15]; MALME-3M) was 3.48 µM, the GI50 ([15]; MALME-3M, five doses (10^−4–10^−8 M)) was 1.9 µM and the CC50 ([15]; MALME-3M) was 6.46 µM. The “TGI (molar concentration giving total growth inhibition)” value ([16]; MDA-MB-435) was 7.41 µM, the GI50 ([16]; read-out: Growth inhibition 50 (GI50), MDA-MB-435, five doses (10^−4–10^−8 M)) was 2.59 µM and the CC50 ([16]; read-out: LC50 (molar concentration leading to 50% net cell death), MDA-MB-435) was 30.2 µM. It also gave a CC50 (Huh-7 cells) of 4.89 µM.
